Assay results: the Kinase Knowledgebase extract (Sharma et al. 2016)

Molecular target: MAPK14 (UniProt Q16539)
Experiment: p38 Kinase Inhibition

Sequence of MAPK14 (Q16539 whole entry, looked up): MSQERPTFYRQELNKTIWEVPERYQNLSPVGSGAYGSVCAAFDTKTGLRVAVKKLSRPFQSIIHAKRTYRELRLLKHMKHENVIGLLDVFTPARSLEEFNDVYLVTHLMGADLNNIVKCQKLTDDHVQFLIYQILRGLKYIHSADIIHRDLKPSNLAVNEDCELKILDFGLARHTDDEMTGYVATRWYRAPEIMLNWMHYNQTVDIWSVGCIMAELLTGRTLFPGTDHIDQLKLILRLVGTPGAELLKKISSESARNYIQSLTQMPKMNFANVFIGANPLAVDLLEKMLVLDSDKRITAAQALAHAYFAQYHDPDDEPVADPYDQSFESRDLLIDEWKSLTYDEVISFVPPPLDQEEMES

| Compound | IC50 |
| --- | --- |
| CCOCC(=O)NCCn1cnc(-c2ccc(F)cc2)c1-c1ccnc(NCc2ccc(OC)cc2)n1 | < 50 µM |
| CC(C)n1cnc(-c2ccc(F)cc2)c1-c1ccnc(Nc2ccccc2)n1 | < 50 µM |
| Cc1cccc(C)c1Nc1nccc(-c2c(-c3ccc(F)cc3)ncn2C2CCNCC2)n1 | < 50 µM |
| Cc1cc(F)ccc1Nc1nccc(-c2c(-c3ccc(F)cc3)ncn2C2CCN(C(=O)OC(C)(C)C)CC2)n1 | < 50 µM |
| Cc1ccccc1Nc1nccc(-c2c(-c3ccc(F)cc3)ncn2C2CCNCC2)n1 | < 50 µM |
| Cc1ccc(F)cc1Nc1nccc(-c2c(-c3ccc(F)cc3)ncn2C2CCNCC2)n1 | < 50 µM |
| Fc1ccc(-c2ncn(C3CCCCC3)c2-c2ccnc(NCc3cccnc3)n2)cc1 | < 50 µM |
| O=C(Nc1cccc(C(F)(F)F)c1)N1CCC(n2cnc(-c3ccc(F)cc3)c2-c2ccnc(Nc3ccccc3C(F)(F)F)n2)CC1 | < 50 µM |
| COc1ccc(C(=O)NCCn2cnc(-c3ccc(F)cc3)c2-c2ccnc(NCc3ccc(Cl)c(Cl)c3)n2)cc1OC | < 50 µM |
| Fc1ccc(-c2ncn(C3CCCCC3)c2-c2ccnc(Nc3ccccc3)n2)cc1 | < 50 µM |

Now from value to compound:

| IC50 | Compound |
| --- | --- |
| < 50 µM | Fc1ccc(-c2ncn(C3CCCC3)c2-c2ccnc(Nc3ccccc3)n2)cc1 |
| < 50 µM | CC(CCc1ccccc1)Nc1nccc(-c2c(-c3ccc(F)cc3)ncn2C2CCCCC2)n1 (stereo not given) |
| < 50 µM | Cc1ccccc1Nc1nccc(-c2c(-c3ccc(F)cc3)ncn2-c2ccc(F)cc2)n1 |
| < 50 µM | Fc1ccc(-c2ncn(C3CCCCC3)c2-c2ccnc(NCCCN3CCOCC3)n2)cc1 |
| < 50 µM | Fc1ccc(-c2ncn(-c3ccc(F)cc3)c2-c2ccnc(N3CCOC(Nc4ccccc4)C3)n2)cc1 (stereo not given) |
| < 50 µM | Fc1ccc(-c2ncn(C3CCCCC3)c2-c2ccnc(NCCc3c[nH]cn3)n2)cc1 |
| < 50 µM | Cc1cccc(C)c1Nc1nccc(-c2c(-c3ccc(F)cc3)ncn2-c2ccc(F)cc2)n1 |
| < 50 µM | Fc1ccc(-c2ncn(-c3ccc(F)cc3)c2-c2ccnc(Nc3ccccc3)n2)cc1 |
| < 50 µM | Fc1ccc(-c2ncn(C3CCCCC3)c2-c2ccnc(NCCC(c3ccccc3)c3ccccc3)n2)cc1 |
| < 50 µM | Fc1ccc(Nc2nccc(-c3c(-c4ccc(F)cc4)ncn3-c3ccc(F)cc3)n2)cc1 |
